Here are results for 13 molecules from US11109593B2, “Isoxazolin-5-one derivative and herbicide containing same as active ingredient” (HOKKO CHEMICAL INDUSTRY CO., LTD., priority 2017, dated 2021).

What all share (type): in vivo
In assay [1] the test system is Scirpus juncoides. The experiment in a line: Test Example 2: herbicidal effect test by treatment during growing period in paddy rice cultivation (seven days after seeding). The conditions noted are these: 120 g/10a active ingredient, assessed 14 days after treatment, dry weight vs untreated area. As to the method:
(§1) This test was conducted in a double system per one agent solution concentration area, and the herbicidal rates (%) were determined by the following equation (Math. 1) on 14 days after the treatment with the agents. Herbicidal Rate (%)={1-(Average Dry Weight (g) of Plant of Treated Area)/(Average Dry Weight (g) of Plant of Untreated Area)}×100 [Math. 1]
(§2) Herbicidal Effect Test by Treatment During Growing Period in Paddy Rice Cultivation
(§3) Wagner pots with an area of 1/10000 ares were filled with a paddy soil, and after adding water, a compound fertilizer (N:P:K=17:17:17) was mixed, followed by soil puddling. Then, Echinochloa crus-galli, broad leaf weeds (Lindernia pyxidaria and Monochoria vaginalis) and Scirpus juncoides, 30 seeds each, were sown in a depth of 0 to 1 cm. Water was poured immediately after seeding, and the water depth was kept at about 3 cm. The subsequent management was conducted in a glass greenhouse. Emulsions prepared using the compounds in Table 4 below according to Formulation Example 5 were diluted with water seven days after seeding, and a certain amount of the water-diluted agent solutions were dropped. The converted amount of the applied active ingredient corresponded to 120 g per 10 ares. The test was conducted in a double system per one agent solution concentration area, and the herbicidal rates (%) were determined by the equation (Math. 1) on 14 days after the treatment with the agents. […] The compound numbers in Table 4 are the same as those in Table 1 and Table 2 above.

Assay [2] deals with Echinochloa crus-galli. Described as above. To be noted: 120 g/10a active ingredient, assessed 14 days after treatment, dry weight vs untreated area. As to the method:
as §1, §2, §3

In assay [3] the test system is broad leaf weeds (Lindernia pyxidaria and Monochoria vaginalis). Described as above. The conditions noted are these: 120 g/10a active ingredient, assessed 14 days after treatment, dry weight vs untreated area. The method, then: as §1, §2, §3
The test system of assay [4] is Scirpus juncoides. The experiment in a line: Test Example 1: herbicidal effect test by treatment of rice paddy soil (immediately after seeding). To be noted: 120 g/10a active ingredient, dry weight vs untreated area, 14 days after treatment. As to the method: (§4) Herbicidal Effect Test by Treatment of Rice Paddy Soil
(§5) Wagner pots with an area of 1/10000 ares were filled with a paddy soil, and after adding water, a compound fertilizer (N:P:K=17:17:17) was added, followed by soil puddling. Then, Echinochloa crus-galli, broad leaf weeds (Lindernia pyxidaria and Monochoria vaginalis) and Scirpus juncoides, 30 seeds each, were sown in a depth of 0 to 1 cm. Water was poured immediately after seeding, and the water depth was kept at about 3 cm. The subsequent management was conducted in a glass greenhouse. Immediately after that, emulsions prepared using the compounds in Table 3 below according to Formulation Example 5 were diluted with water, and a certain amount of the water-diluted agent solutions were dropped. The converted amount of the applied active ingredient corresponded to 120 g per 10 ares.
as §1
(§6) The compound numbers in Table 3 are the same as those in Table 1 and Table 2 above.

The subject of assay [5] is Echinochloa crus-galli. The assay is described as above. The conditions noted are these: 120 g/10a active ingredient, dry weight vs untreated area, 14 days after treatment. As to the method: as §4, §5, §1, §6
Assay [6] concerns broad leaf weeds (Lindernia pyxidaria and Monochoria vaginalis). The description is as above. The conditions noted are these: 120 g/10a active ingredient, dry weight vs untreated area, 14 days after treatment. As to the method:
as §4, §5, §1, §6

Consider `Cc1c(Cc2ccccc2NS(=O)(=O)C(F)(F)F)c(=O)on1Cc1cccc(F)c1` [Compound 1-182], for which the entries for the “Herbicidal rate (%) Scirpus juncoides” value in the assay with Scirpus juncoides [1] and in the assay on Scirpus juncoides [4] were 70% and 100%, respectively. Besides, the “Herbicidal rate (%) Echinochloa crus-galli” value is listed as 40% in the assay on Echinochloa crus-galli [2] and 90% in the assay with Echinochloa crus-galli [5]. The “Herbicidal rate (%) Lindernia pyxidaria” value in assay [3] amounted to 60%; in assay [6], 100%. Further, the results for the “Herbicidal rate (%) Monochoria vaginalis” value in assay [3] and in assay [6] were 60% and 90%, respectively.

With `Cc1c(Cc2ccccc2NS(=O)(=O)C(F)(F)F)c(=O)on1Cc1ccc(Cl)cc1` [Compound 1-186], the “Herbicidal rate (%) Scirpus juncoides” value in the assay on Scirpus juncoides [1] was 80%; in the assay on Scirpus juncoides [4] it was 90%. The figures for the “Herbicidal rate (%) Echinochloa crus-galli” value in the assay with Echinochloa crus-galli [2] and in the assay with Echinochloa crus-galli [5] were 50% and 90%, respectively. Moreover, the “Herbicidal rate (%) Lindernia pyxidaria” value amounted to 80% in assay [3] and 100% in assay [6]. The “Herbicidal rate (%) Monochoria vaginalis” value worked out at 80% in assay [3] and 100% in assay [6].

With `Cc1c(Cc2ccccc2NS(=O)(=O)C(F)(F)F)c(=O)on1Cc1ccc(Br)cc1` [Compound 1-187], the “Herbicidal rate (%) Scirpus juncoides” value in the assay on Scirpus juncoides [1] was found to be 70%; with Scirpus juncoides [4] it was 80%. Besides, the “Herbicidal rate (%) Echinochloa crus-galli” value with Echinochloa crus-galli [2] is on record as 40%; with Echinochloa crus-galli [5] it was 90%. Moreover, the “Herbicidal rate (%) Lindernia pyxidaria” value in assay [3] was determined as 70%; in assay [6] it was 90%. For the same molecule, the “Herbicidal rate (%) Monochoria vaginalis” value in assay [3] amounted to 80%; in assay [6], 90%.

As for `Cc1c(Cc2ccccc2NS(=O)(=O)C(F)(F)F)c(=O)on1Cc1ccc(C#N)cc1` [Compound 1-189], the “Herbicidal rate (%) Scirpus juncoides” value with Scirpus juncoides [1] was determined as 80%; in the assay on Scirpus juncoides [4] it was 90%. Moreover, the “Herbicidal rate (%) Echinochloa crus-galli” value is 60% in the assay on Echinochloa crus-galli [2] and 90% in the assay on Echinochloa crus-galli [5]. In addition, the “Herbicidal rate (%) Lindernia pyxidaria” value in assay [3] came to 80%; in assay [6], 100%. Also, the entries for the “Herbicidal rate (%) Monochoria vaginalis” value in assay [3] and in assay [6] were 80% and 90%, respectively.

With `Cc1c(Cc2ccccc2NS(=O)(=O)C(F)(F)F)c(=O)on1Cc1ccc(C(C)(C)C)cc1` [Compound 1-192], the “Herbicidal rate (%) Scirpus juncoides” value in the assay with Scirpus juncoides [1] worked out at 60%; with Scirpus juncoides [4], 40%. The “Herbicidal rate (%) Echinochloa crus-galli” value is on record as 40% with Echinochloa crus-galli [2] and 90% in the assay on Echinochloa crus-galli [5]. For the same molecule, the “Herbicidal rate (%) Lindernia pyxidaria” value is listed as 80% in assay [3] and 100% in assay [6]. Moreover, the “Herbicidal rate (%) Monochoria vaginalis” value in assay [3] was determined as 80%; in assay [6] it was 100%.

For the molecule `Cc1c(Cc2ccccc2NS(=O)(=O)C(F)(F)F)c(=O)on1Cc1cccc(C(F)(F)F)c1` [Compound 1-193], the entries for the “Herbicidal rate (%) Scirpus juncoides” value with Scirpus juncoides [1] and in the assay on Scirpus juncoides [4] were 70% and 90%, respectively. Moreover, the figures for the “Herbicidal rate (%) Echinochloa crus-galli” value in the assay on Echinochloa crus-galli [2] and in the assay on Echinochloa crus-galli [5] were 60% and 90%, respectively. Also, the “Herbicidal rate (%) Lindernia pyxidaria” value in assay [3] worked out at 80%; in assay [6], 100%. The figures for the “Herbicidal rate (%) Monochoria vaginalis” value in assay [3] and in assay [6] were 80% and 100%, respectively.

Consider `Cc1c(Cc2ccccc2NS(=O)(=O)C(F)(F)F)c(=O)on1Cc1ccc(C(F)(F)F)cc1` [Compound 1-194], for which the “Herbicidal rate (%) Scirpus juncoides” value in the assay with Scirpus juncoides [1] is reported as 60%; with Scirpus juncoides [4], 80%. The results for the “Herbicidal rate (%) Echinochloa crus-galli” value in the assay with Echinochloa crus-galli [2] and with Echinochloa crus-galli [5] were 40% and 80%, respectively. The “Herbicidal rate (%) Lindernia pyxidaria” value in assay [3] is recorded as 60%; in assay [6], 100%. The “Herbicidal rate (%) Monochoria vaginalis” value in assay [3] was determined as 60%; in assay [6], 80%.

Regarding `COc1ccc(Cn2oc(=O)c(Cc3ccccc3NS(=O)(=O)C(F)(F)F)c2C)cc1` [Compound 1-195], the entries for the “Herbicidal rate (%) Scirpus juncoides” value in the assay on Scirpus juncoides [1] and in the assay on Scirpus juncoides [4] were 80% and 90%, respectively. For the same molecule, the “Herbicidal rate (%) Echinochloa crus-galli” value came to 80% with Echinochloa crus-galli [2] and 90% with Echinochloa crus-galli [5]. Further, the “Herbicidal rate (%) Lindernia pyxidaria” value in assay [3] came out at 40%; in assay [6], 70%. In addition, the “Herbicidal rate (%) Monochoria vaginalis” value in assay [3] was 40%; in assay [6], 60%.

In the case of `Cc1c(Cc2ccccc2NS(=O)(=O)C(F)(F)F)c(=O)on1Cc1ccc(SC(F)(F)F)cc1` [Compound 1-198], the “Herbicidal rate (%) Scirpus juncoides” value with Scirpus juncoides [1] was found to be 40%; in the assay with Scirpus juncoides [4] it was 80%. For the same molecule, the “Herbicidal rate (%) Echinochloa crus-galli” value is listed as 40% with Echinochloa crus-galli [2] and 80% with Echinochloa crus-galli [5]. Also, the “Herbicidal rate (%) Lindernia pyxidaria” value in assay [3] turned out to be 90%; in assay [6], 100%. In addition, the entries for the “Herbicidal rate (%) Monochoria vaginalis” value in assay [3] and in assay [6] were 90% and 100%, respectively.

As to `Cc1c(Cc2ccccc2NS(=O)(=O)C(F)(F)F)c(=O)on1Cc1ccc(F)cc1F` [Compound 1-199], the “Herbicidal rate (%) Scirpus juncoides” value is recorded as 80% with Scirpus juncoides [1] and 90% in the assay with Scirpus juncoides [4]. The “Herbicidal rate (%) Echinochloa crus-galli” value came to 90% with Echinochloa crus-galli [2] and 100% with Echinochloa crus-galli [5]. Besides, the “Herbicidal rate (%) Lindernia pyxidaria” value in assay [3] worked out at 80%; in assay [6], 100%. The “Herbicidal rate (%) Monochoria vaginalis” value in assay [3] is given as 80%; in assay [6], 100%.

For the molecule `Cc1c(Cc2ccccc2NS(=O)(=O)C(F)(F)F)c(=O)on1Cc1ccc(F)c(F)c1` [Compound 1-200], the “Herbicidal rate (%) Scirpus juncoides” value in the assay on Scirpus juncoides [1] was 80%; with Scirpus juncoides [4], 90%. In addition, the “Herbicidal rate (%) Echinochloa crus-galli” value with Echinochloa crus-galli [2] came out at 60%; in the assay on Echinochloa crus-galli [5], 90%. The figures for the “Herbicidal rate (%) Lindernia pyxidaria” value in assay [3] and in assay [6] were 90% and 100%, respectively. In addition, the “Herbicidal rate (%) Monochoria vaginalis” value was 90% in assay [3] and 100% in assay [6].

For the molecule `Cc1c(Cc2ccccc2NS(=O)(=O)C(F)(F)F)c(=O)on1Cc1ccc(F)cc1Cl` [Compound 1-201], the “Herbicidal rate (%) Scirpus juncoides” value in the assay on Scirpus juncoides [1] is 40%; with Scirpus juncoides [4] it was 100%. Besides, the “Herbicidal rate (%) Echinochloa crus-galli” value with Echinochloa crus-galli [2] was found to be 40%; in the assay with Echinochloa crus-galli [5], 90%. Besides, the results for the “Herbicidal rate (%) Lindernia pyxidaria” value in assay [3] and in assay [6] were 70% and 90%, respectively. The “Herbicidal rate (%) Monochoria vaginalis” value is 70% in assay [3] and 80% in assay [6].

`Cc1c(Cc2ccccc2NS(=O)(=O)C(F)(F)F)c(=O)on1Cc1ccc(F)c(Cl)c1` [Compound 1-202]: the figures for the “Herbicidal rate (%) Scirpus juncoides” value in the assay with Scirpus juncoides [1] and with Scirpus juncoides [4] were 40% and 80%, respectively. The “Herbicidal rate (%) Echinochloa crus-galli” value in the assay with Echinochloa crus-galli [2] was found to be 40%; in the assay on Echinochloa crus-galli [5] it was 100%. Also, the “Herbicidal rate (%) Lindernia pyxidaria” value in assay [3] stood at 60%; in assay [6], 100%. The “Herbicidal rate (%) Monochoria vaginalis” value in assay [3] turned out to be 60%; in assay [6], 90%.
